Assay results: patent US6747021B2, “Cryptophycin compound” (Eli Lilly and Company, priority 2000, dated 2004)
Like-named read-outs stand apart in the source and are kept apart here.

How the values were obtained:
[1] = system: PANCREATIC DUCTAL ADENOCARCINOMA #02; type: in vivo, murine; conditions: BDF1 female mice
Source text: (§1) Inhibition of tumors transplanted into mice is an accepted procedure for studying the efficacy of antitumor agents (Corbett, et al., In vivo Methods for Screening and Preclinical Testing; Use of rodent solid tumors for drug discovery., In: Anticancer Drug Development Guide: Preclinical Screening, Clinical Trials, and Approval, B. Teicher (ed), Humana Press Inc., Totowa, N.J., Chapter 5, pages 75-99 (1997); (Corbett, et al., Int. J. Pharmacog., 33, Supplement, 102-122 (1995)). Murine tumors or human xenographs were implanted essentially as described by Corbett in In vivo Methods for Screening and Preclinical Testing; Use of rodent solid tumors for drug discovery. Briefly, the murine tumor or human xenograph was implanted subcutaneously using either 12-gauge trocar implants or counted number of cells. The location for the trocar insertion is midway between the axillary and inguinal region along the side of the mouse. The trocar is slipped approximately ¾ of an inch subcutaneously up toward the axilla before discharging the tumor fragment, and pinching the skin as the trocar is removed. Alternatively, human tumor cells prepared from a […] of donor tumors (5×10^6 cells) were implanted subcutaneously in a hind-leg of a male or female nude mouse (Charles River). Either a test compound in vehicle or vehicle alone was administered by intravenous bolus injection (iv), intraperitoneal injection (ip), or oral gavage (po). Each treatment group, as well as a group of untreated control animals, consisted of five animals per group in each experiment. Subcutaneous tumor response was monitored by tumor volume measurement performed twice each week over the course of the experiment (60-120 days). Body weights were taken as a general measure of toxicity. The subcutaneous tumor data were analyzed by determining the median tumor weight for each treatment group over the course of the experiment and calculating the tumor growth delay as the difference in days for the treatment versus the control tumors to reach a volume of either 500 or 1000 mm^3.
(§2) Cryptophycin-309 (309) was tested against a variety of murine and human tumors substantially as described supra. Cryptophycin-55 glycinate (55-GLY), Taxol, and Adriamycin (Adria) were also included in certain tests for purposes of comparison. Cryptophycin 55 glycinate is known in the art (WO 98/08505, Example 9) and has the following structure: [drawing 9]
(§3) Tumor Weight(mg)=(a×b^2)/2 where a=tumor length (mm) and b=tumor width (mm).
(§4) Tumor Growth Delay=T−C where T is the median time (days) required for the treatment group tumors to reach a predetermined size, and C is the median time (days) for the control group tumors to reach the same size. Tumor-free survivors are excluded from this calculation, and are tabulated separately (Tumor Free).
(§5) Log Kill=Tumor Growth Delay/(3.32)(Td)
(§6) where Tumor Growth Delay is as previously defined and Td is tumor volume doubling time (days), estimated from the best fit straight line from a log-linear growth plot of the control group of tumors in exponential growth (100-800 mg range)
(§7) %T/C mass—The treatment and control groups are measured when the control group tumors reach approximately 700 to 1200 mg in size (median group). The median tumor weight of each group is determined (including zeros). The T/C value in percent is an indication of antitumor effectiveness. A T/C≦42% is considered significant antitumor activity. A T/C<10% is considered to indicate highly significant antitumor activity.
(§8) Body Weight Loss Nadir—A body weight loss nadir (mean of group) of greater than 20% or drug deaths greater than 20% are considered to indicate an excessively toxic dosage in single course trials.
(§9) Activity Rating—the Activity Rating is derived from the Log Kill according to the following table: […]

[2] = system: COLON ADENOCARCINOMA-26/A; type: in vivo, murine; conditions: Balb/C female mice
Source text: as §1, §2, §3, §4, §5, §6, §7, §8, §9

[3] = IV 20 mg/kg/inj days 1,3,5,7,9, total dose 100 mg/kg, experiment #
[4] = IV 30 mg/kg/inj days 1,3,5,7,9, total dose 150 mg/kg, experiment #
[5] = IV 33 mg/kg/inj days 1,3,5,7,9, total dose 165 mg/kg, experiment ##
[6] = IV 15 mg/kg/inj days 1,3,5,7,9, total dose 75 mg/kg
[7] = IV 23 mg/kg/inj days 1,3,5,7,9, total dose 115 mg/kg
[8] = IV 35 mg/kg/inj days 1,3,5,7,9, total dose 175 mg/kg

In the case of COc1ccc(C[C@H]2NC(=O)/C=C/C[C@@H]([C@H](C)[C@@H](OC(=O)CN)[C@@H](Cl)c3ccccc3)OC(=O)[C@H](CC(C)(C)C)OC(=O)[C@H](C)CNC2=O)cc1Cl [Cryptophycin 309, Cryptophycin-309], the “% T/C MASS” value [1, 3] is reported as 3.8%, the “ACTIVITY RATING” value [1, 3] is reported as “++ (1.3-1.9)” and the “DRUG DEATHS” value [1, 3] is reported as 0/5. The “GROWTH DELAY” value [1, 3] was 13 days, the “LOG KILL” value [1, 3] was 1.7 and the “MEDIAN TUMOR WEIGHT” value [1, 3] was 63 mg. For the same compound, the “% T/C MASS” value [1, 4] was 3.8%, the “ACTIVITY RATING” value [1, 4] was “++ (1.3-1.9)” and the “DRUG DEATHS” value [1, 4] was 0/5. The “GROWTH DELAY” value [1, 4] was 13 days, the “LOG KILL” value [1, 4] was 1.7 and the “MEDIAN TUMOR WEIGHT” value [1, 4] was 64 mg. The “% T/C MASS” value [1, 5] was 0%, the “ACTIVITY RATING” value [1, 5] was “+++ (2.0-2.8)” and the “DRUG DEATHS” value [1, 5] was 0/5. For the same compound, the “GROWTH DELAY” value [1, 5] was 15.25 days, the “LOG KILL” value [1, 5] was 2.7 and the “MEDIAN TUMOR WEIGHT” value [1, 5] was 0 mg. For the same compound, the “% T/C MASS” value [2, 6] was 14%, the “ACTIVITY RATING” value [2, 6] was “+ (0.7-1.2)” and the “DRUG DEATHS” value [2, 6] was 0/5. For the same compound, the “GROWTH DELAY” value [2, 6] was 6.65 days, the “LOG KILL” value [2, 6] was 1.2 and the “MEDIAN TUMOR WEIGHT” value [2, 6] was 126 mg. The “% T/C MASS” value [2, 7] was 0%, the “ACTIVITY RATING” value [2, 7] was “+++ (2.0-2.8)” and the “DRUG DEATHS” value [2, 7] was 0/5. The “GROWTH DELAY” value [2, 7] was 12.75 days, the “LOG KILL” value [2, 7] was 2.3 and the “MEDIAN TUMOR WEIGHT” value [2, 7] was 0 mg. The “% T/C MASS” value [2, 8] was 0%, the “ACTIVITY RATING” value [2, 8] was “+++ (2.0-2.8)” and the “DRUG DEATHS” value [2, 8] was 0/5. The “GROWTH DELAY” value [2, 8] was 15.25 days, the “LOG KILL” value [2, 8] was 2.7 and the “MEDIAN TUMOR WEIGHT” value [2, 8] was 0 mg.
